In patent publication US20130253037A1, “AURORA A KINASE EFFECTORS” (PURDUE RESEARCH FOUNDATION, priority 2010, published 2013):

Experiments:
[1] = tested on: wt kinases present in the MDA cell lysate; assay: In vitro kinase reaction with MDA cell lysate and [γ-32P] Phenethyl-ATP; type: biochemical; conditions: cell lysate alone, without AA-as7/TPX2
Protocol: To prepare a labeled sample for 2D gel electrophoresis, kinase reactions with whole cell lysate or fractionated lysate were carried out as published before (Sun, et al, (2008a) Mol. Biol. Cell 19, 3052-3069). Gel spots were manually excised and automatically processed for peptide mapping experiments using a Micromass MassPREP Station in conjunction with manufacturer specified protocols.
An in vitro kinase reaction was performed using unsynchronized MDA cell lysate, [[γ-^32P] Phenethyl-ATP and Aurora A-as7/TPX2 to identify novel Aurora A substrates. […] Phenethyl ATP is specific for the engineered kinase and is not accepted by wt kinases present in the cell lysate. In contrast, when AA-as7 and TPX2 were added to the cell lysate along with Phenethyl ATP, it phosphorylated several proteins. These proteins are the direct targets of Aurora A. To isolate these targets, proteins were separated using 2D gel electrophoresis, isolated and visualized by autoradiography. Radiolabeled proteins were excised from gel and subsequent to trypsin digestion the peptide cleavage products were identified by tandem mass spectrometry. Several Aurora A substrates were identified including PHLDA1, p53 and vimentin.

[2] = target: T1, AA-as7 kinase (Aurora A LI85V, L201G) (Mus musculus, UniProt P97477, L185V/L201G); assay: In vitro kinase assay with AA-as7 and TPX2; type: biochemical, murine; conditions: AA-as7; phosphodonor as labelled
T1 construct: the Aurora A mutant is the double mutant Aurora A (AA-as7); 6-His; made in house; host or cells: Sf9 insect cells (baculovirus, Bac-to-Bac)
T1 sequence (P97477 1-395 L185V/L201G): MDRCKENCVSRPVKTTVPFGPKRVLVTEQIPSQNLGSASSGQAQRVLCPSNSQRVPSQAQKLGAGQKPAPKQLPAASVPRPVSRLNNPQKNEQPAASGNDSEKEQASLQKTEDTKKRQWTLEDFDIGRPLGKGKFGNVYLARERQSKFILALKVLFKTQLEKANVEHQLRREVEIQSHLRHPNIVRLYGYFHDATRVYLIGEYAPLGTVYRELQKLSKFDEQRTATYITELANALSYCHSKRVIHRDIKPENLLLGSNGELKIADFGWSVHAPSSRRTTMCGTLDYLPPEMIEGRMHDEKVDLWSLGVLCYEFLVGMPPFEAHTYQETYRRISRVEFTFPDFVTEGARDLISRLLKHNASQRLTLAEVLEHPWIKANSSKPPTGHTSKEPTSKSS
Protocol: For in vitro labeling, Aurora A/TPX2 complex (on beads) was pre-incubated with 10 μM cold ATP for 10 min to activate the kinase. The beads were washed twice with kinase buffer, and then subjected to kinase assay with 2-5 μg of recombinant protein (such as PHLDA) and 1 μCi of [γ-^32P] ATP. Reactions were terminated by adding SDS sample buffer, separated by SDS-PAGE gel, transferred to PVDF membrane and exposed to Biomax MS film. Aurora A kinase assays were conducted using 1 μCi of [γ-^32P] ATP and 3 μg of Aurora A substrate peptide in a final volume of 30 μl at 30° C. as reported before (Sun, et al, (2008a) Mol. Biol. Cell 19, 3052-3069).
IC50 values were determined by fitting the data to a sigmoidal dose response curve using GraphPad Prism 4.0 software. Km and Vmax values were derived from the assay described above using various concentrations of AA peptide substrate and ATP. Km and Vmax values were determined using GraphPad Prism 4.0 software.

[3] = target: Aurora B-as7 (L138V, L154G-AB) kinase (Homo sapiens, UniProt Q96GD4, L138V/L154G); assay: In vitro kinase assay with AB-as7; type: biochemical; conditions: phosphodonor as labelled
Sequence of Aurora B-as7 (L138V, L154G-AB) kinase (Q96GD4 whole entry L138V/L154G): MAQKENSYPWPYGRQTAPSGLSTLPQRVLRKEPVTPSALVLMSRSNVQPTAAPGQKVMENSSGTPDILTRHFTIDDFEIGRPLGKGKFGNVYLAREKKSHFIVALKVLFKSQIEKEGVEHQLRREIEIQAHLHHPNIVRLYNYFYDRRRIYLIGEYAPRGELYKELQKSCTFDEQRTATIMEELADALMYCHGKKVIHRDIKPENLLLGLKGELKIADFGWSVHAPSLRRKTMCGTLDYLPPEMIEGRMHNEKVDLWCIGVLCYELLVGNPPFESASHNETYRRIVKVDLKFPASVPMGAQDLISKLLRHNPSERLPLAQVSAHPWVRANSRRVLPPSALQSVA

Structure (SMILES): O=P(O)(O)OP(=O)(O)OP(=O)(O)OC[C@H]1O[C@@H](n2cnc3c(NCCc4ccccc4)ncnc32)[C@H](O)[C@@H]1O [N^6-phenethyl ATP, N^6-(phenethyl) ATP]
- labelling signal in cell lysate [1]: no signal
- Kcat [2]: 223 s⁻¹
- Km [2]: 11.6 µM
- Vmax [2]: 3.02 × 10^6
- Kcat [3]: 6.2 s⁻¹
- Km [3]: 11.4 µM
- Vmax [3]: 7.44 × 10^4
